Among the data in ChEMBL document CHEMBL1159186 (Bioorg Med Chem Lett, 1996) are IC50 values, retold here.

Where only a bound is given, the exact number is not on record here.

Experiment [1] has as its target Epidermal growth factor receptor (Homo sapiens, UniProt P00533). Briefly: Inhibition of tyrosine kinase Epidermal growth factor receptor.
The target of experiment [2] is cAMP-dependent protein kinase (PKA) (Homo sapiens, UniProt P22694+P17612+P22612). Briefly: Inhibition of serine/threonine kinase(PKA). Format: protein assay, Oryctolagus cuniculus.
The target in experiment [3] is Protein kinase C alpha type (Homo sapiens, UniProt P17252). The experiment in a line: Inhibition of serine/threonine kinase(PKC-alpha). More on the design: species or system Sus scrofa.
Experiment [4] deals with Platelet-derived growth factor receptor (Homo sapiens, UniProt P09619+P16234). Briefly: Inhibition of tyrosine kinase(PDGF-R). The experiment is classed as protein-complex assay.
Experiment [5] concerns the target Protein kinase C delta type (Homo sapiens, UniProt Q05655). The experiment in a line: Inhibition of serine/threonine kinase(PKC-delta). More on the design: species or system Sus scrofa.
Experiment [6] has as its target Proto-oncogene tyrosine-protein kinase Src (Homo sapiens, UniProt P12931). The experiment in a line: Inhibition of tyrosine kinase(c-Src).

Chain of Epidermal growth factor receptor (P00533 whole entry): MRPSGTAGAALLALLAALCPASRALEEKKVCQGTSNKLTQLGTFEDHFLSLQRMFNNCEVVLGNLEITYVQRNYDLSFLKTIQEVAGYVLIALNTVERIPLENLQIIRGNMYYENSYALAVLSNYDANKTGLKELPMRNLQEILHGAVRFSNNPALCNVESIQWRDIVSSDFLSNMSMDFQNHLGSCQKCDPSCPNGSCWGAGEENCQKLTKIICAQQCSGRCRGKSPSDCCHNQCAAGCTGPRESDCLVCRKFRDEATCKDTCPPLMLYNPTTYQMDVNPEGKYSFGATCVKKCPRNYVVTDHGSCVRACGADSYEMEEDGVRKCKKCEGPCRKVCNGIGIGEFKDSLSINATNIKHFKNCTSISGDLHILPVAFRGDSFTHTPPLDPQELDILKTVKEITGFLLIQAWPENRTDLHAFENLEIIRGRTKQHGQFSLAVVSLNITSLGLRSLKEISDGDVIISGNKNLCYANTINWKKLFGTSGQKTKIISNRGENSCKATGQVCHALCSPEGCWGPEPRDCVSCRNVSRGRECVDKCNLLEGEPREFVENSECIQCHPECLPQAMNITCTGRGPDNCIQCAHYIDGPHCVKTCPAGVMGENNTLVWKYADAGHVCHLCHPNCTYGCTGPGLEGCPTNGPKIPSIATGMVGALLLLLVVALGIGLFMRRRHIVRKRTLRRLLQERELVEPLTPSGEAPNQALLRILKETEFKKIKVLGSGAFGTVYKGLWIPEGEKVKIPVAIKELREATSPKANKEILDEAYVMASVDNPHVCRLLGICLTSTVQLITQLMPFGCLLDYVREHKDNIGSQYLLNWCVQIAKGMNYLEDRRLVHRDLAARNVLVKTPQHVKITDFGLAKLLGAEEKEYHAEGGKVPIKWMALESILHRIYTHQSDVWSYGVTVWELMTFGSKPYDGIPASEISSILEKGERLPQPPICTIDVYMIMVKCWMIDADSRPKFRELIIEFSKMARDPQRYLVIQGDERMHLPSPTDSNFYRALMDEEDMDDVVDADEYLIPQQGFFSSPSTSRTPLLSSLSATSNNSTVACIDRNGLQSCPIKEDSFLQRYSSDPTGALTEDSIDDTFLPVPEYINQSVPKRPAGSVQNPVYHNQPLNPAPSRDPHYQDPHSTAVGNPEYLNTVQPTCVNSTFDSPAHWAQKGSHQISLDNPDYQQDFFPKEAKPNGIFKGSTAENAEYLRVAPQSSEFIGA
Chain of Protein kinase C delta type (Q05655 whole entry): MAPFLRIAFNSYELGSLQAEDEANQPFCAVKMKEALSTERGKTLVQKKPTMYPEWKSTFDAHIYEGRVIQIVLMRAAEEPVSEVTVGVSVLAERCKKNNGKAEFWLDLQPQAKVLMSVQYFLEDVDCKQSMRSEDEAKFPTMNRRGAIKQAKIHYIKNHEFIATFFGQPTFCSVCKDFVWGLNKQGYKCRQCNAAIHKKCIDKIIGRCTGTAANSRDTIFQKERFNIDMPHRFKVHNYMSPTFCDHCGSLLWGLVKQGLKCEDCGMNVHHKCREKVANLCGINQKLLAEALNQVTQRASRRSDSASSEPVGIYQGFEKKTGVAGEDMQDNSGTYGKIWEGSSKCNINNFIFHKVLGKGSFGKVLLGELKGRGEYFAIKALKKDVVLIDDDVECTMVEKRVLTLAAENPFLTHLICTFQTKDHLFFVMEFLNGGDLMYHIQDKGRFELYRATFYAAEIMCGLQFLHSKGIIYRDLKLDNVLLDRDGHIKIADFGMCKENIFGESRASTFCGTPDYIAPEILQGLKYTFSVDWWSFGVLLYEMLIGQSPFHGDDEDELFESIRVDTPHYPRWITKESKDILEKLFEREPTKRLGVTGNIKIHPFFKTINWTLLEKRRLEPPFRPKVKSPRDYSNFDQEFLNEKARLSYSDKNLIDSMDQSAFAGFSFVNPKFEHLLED
Chain of Proto-oncogene tyrosine-protein kinase Src (P12931 2-536 limits assumed): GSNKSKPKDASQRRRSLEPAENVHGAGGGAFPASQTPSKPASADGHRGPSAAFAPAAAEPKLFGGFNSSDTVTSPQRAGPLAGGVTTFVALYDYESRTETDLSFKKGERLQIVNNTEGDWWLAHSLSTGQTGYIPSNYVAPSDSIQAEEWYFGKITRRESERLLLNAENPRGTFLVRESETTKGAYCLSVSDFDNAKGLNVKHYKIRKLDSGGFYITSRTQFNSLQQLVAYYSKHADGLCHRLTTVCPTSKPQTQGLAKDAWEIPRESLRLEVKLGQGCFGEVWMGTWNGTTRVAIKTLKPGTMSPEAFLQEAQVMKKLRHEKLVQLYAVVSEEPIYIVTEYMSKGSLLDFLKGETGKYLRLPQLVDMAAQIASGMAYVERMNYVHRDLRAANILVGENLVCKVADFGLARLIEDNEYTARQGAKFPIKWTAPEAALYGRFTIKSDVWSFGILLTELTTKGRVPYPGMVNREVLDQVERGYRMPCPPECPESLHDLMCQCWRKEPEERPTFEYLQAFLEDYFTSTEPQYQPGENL

In the case of `O=C(Nc1cccc(Nc2nccc(-c3cccnc3)n2)c1)c1ccccc1`, the IC50 in experiment [1] is > 50 µM; in experiment [2], > 500 µM; in experiment [3], 1.2 µM; in experiment [4] it was 5 µM; in experiment [5], 23 µM; in experiment [6] it was 15.7 µM.
As to `Cc1ccc(NC(=O)c2ccccc2)cc1Nc1nccc(-c2ccc[n+]([O-])c2)n1`, the half-inhibitory concentration (IC50) in experiment [1] was > 100 µM; in experiment [2] it was > 500 µM; in experiment [3] it was > 100 µM; in experiment [4] it was > 10 µM; in experiment [5], > 100 µM.
For `Cc1ccc(NC(=O)c2ccccc2)cc1Nc1nccc(-c2cccnc2)n1`, the IC50 in experiment [2] was > 500 µM; in experiment [3], 72 µM; in experiment [5], > 500 µM.
Consider `CNc1ccc(C)c(Nc2nccc(-c3cccnc3)n2)c1`, for which the IC50 in experiment [1] is > 100 µM; in experiment [2], > 500 µM; in experiment [3], 71 µM; in experiment [4], > 10 µM; in experiment [5], > 100 µM.
As for `Cc1ccc([N+](=O)[O-])cc1Nc1nccc(-c2cccnc2)n1`, the IC50 in experiment [1] was > 100 µM; in experiment [2] it was > 500 µM; in experiment [3], > 500 µM; in experiment [4] it was > 100 µM; in experiment [5], > 500 µM; in experiment [6], > 100 µM.
For `COc1ccc(NC(=O)c2ccccc2)cc1Nc1nccc(-c2cccnc2)n1`, the IC50 in experiment [1] was > 100 µM; in experiment [2], > 500 µM; in experiment [3], 10 µM; in experiment [4], > 10 µM; in experiment [5], > 100 µM.
Regarding `Cc1ccc(NC(=O)c2ccccc2)cc1Nc1nccc(-c2cccs2)n1`, the IC50 in experiment [1] is > 100 µM; in experiment [2], > 500 µM; in experiment [3] it was > 100 µM; in experiment [4] it was > 10 µM; in experiment [5] it was > 100 µM; in experiment [6], > 100 µM.
Take `O=C(Nc1ccc(Cl)c(Nc2nccc(-c3cccnc3)n2)c1)c1ccccc1`: the IC50 in experiment [1] was > 100 µM; in experiment [2], > 500 µM; in experiment [3], > 100 µM; in experiment [4] it was 0.15 µM; in experiment [5], > 100 µM.
For the compound `Cc1ccc(N(C)C(=O)c2ccccc2)cc1Nc1nccc(-c2cccnc2)n1`, the IC50 in experiment [1] was 49 µM; in experiment [2] it was > 500 µM; in experiment [3], 85 µM; in experiment [4], > 100 µM; in experiment [5] it was > 100 µM.
Regarding `Cc1ccc(NC(=O)c2ccc3ccccc3c2)cc1Nc1nccc(-c2cccnc2)n1`, the IC50 in experiment [1] was > 100 µM; in experiment [2], > 100 µM; in experiment [3], > 100 µM; in experiment [4], 0.05 µM; in experiment [5], > 500 µM; in experiment [6] it was > 100 µM.
Take `Cc1ccc(N)cc1Nc1nccc(-c2cccnc2)n1`: the IC50 is > 100 µM in experiment [1]; > 500 µM in experiment [2]; > 100 µM in experiment [3]; > 10 µM in experiment [4]; > 500 µM in experiment [5]; > 100 µM in experiment [6].
Turning to `Cc1ccc(NC(=O)c2ccc(Cl)cc2)cc1Nc1nccc(-c2cccnc2)n1`, the IC50 is > 100 µM in experiment [1]; > 100 µM in experiment [2]; > 100 µM in experiment [3]; 0.01 µM in experiment [4]; > 500 µM in experiment [5]; > 100 µM in experiment [6].
With `Cc1ccc(N(C(=O)c2ccccc2)C(=O)c2ccccc2)cc1Nc1nccc(-c2cccnc2)n1`, the 50% inhibitory concentration (IC50) was 75 µM in experiment [1]; > 500 µM in experiment [2]; > 100 µM in experiment [3]; 2.5 µM in experiment [4]; > 100 µM in experiment [5].
For the compound `COc1ccccc1C(=O)Nc1ccc(C)c(Nc2nccc(-c3cccnc3)n2)c1`, the 50% inhibitory concentration (IC50) in experiment [1] was > 100 µM; in experiment [2], > 500 µM; in experiment [3], > 100 µM; in experiment [4], 0.3 µM; in experiment [5] it was > 500 µM; in experiment [6], > 100 µM.
With `Cc1ccc(C(=O)Nc2ccc(C)c(Nc3nccc(-c4cccnc4)n3)c2)cc1`, the IC50 in experiment [1] was > 100 µM; in experiment [2], > 100 µM; in experiment [3] it was > 100 µM; in experiment [4] it was 0.01 µM; in experiment [5], > 500 µM; in experiment [6] it was > 100 µM.
Take `CC(=O)Nc1ccc(C)c(Nc2nccc(-c3cccnc3)n2)c1`: the IC50 in experiment [1] is > 100 µM; in experiment [2], > 500 µM; in experiment [3], > 100 µM; in experiment [4], 50 µM; in experiment [5] it was > 500 µM; in experiment [6], > 100 µM.

As usually defined, the IC50 is the concentration at which inhibition is half-maximal.
